The text below walks through data of PubChem BioAssay AID330 (DTP/NCI, 2004).

Several values for one entry are separate records, joined by “and”; a condition that tells them apart may be missing. Identical values can stand only once. Inconclusive results and toxic doses are left out.

This assay deals with P388 leukemia ip, CD2F1 mice, survival T/C. The experiment in a line: NCI In Vivo Anticancer Drug Screen. Data for tumor model P388 Leukemia (intraperitoneal) in CD2F1 (CDF1) mice. Conditions: endpoint: median survival time, higher = longer survival. An outline of the steps: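 Mice carrying the transplanted tumor received test compound or vehicle. Survival was recorded in each group, and the value is the treated-group measurement divided by that of the vehicle-treated control group.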

[1] abbreviates: dose: 50.0 mg/kg/injection, schedule: Q01DX009 (ip), vehicle: saline.
Where [2] appears, read: dose: 100.0 mg/kg/injection, schedule: Q01DX009 (ip), vehicle: saline.
[3] abbreviates: dose: 100.0 mg/kg/injection, schedule: Q01DX009 (ip), vehicle: suspension in saline.
Setting [4] is: dose: 60.0 mg/kg/injection, schedule: Q01DX005 (ip), vehicle: saline with Tween-80.
Where [5] appears, read: dose: 120.0 mg/kg/injection, schedule: Q01DX005 (ip), vehicle: saline with Tween-80.
[6] abbreviates: dose: 240.0 mg/kg/injection, schedule: Q01DX005 (ip), vehicle: saline with Tween-80.
The mark [7] stands for this setting: dose: 50.0 mg/kg/injection, schedule: Q01DX009 (ip), vehicle: saline with Tween-80.
[8] abbreviates: dose: 100.0 mg/kg/injection, schedule: Q01DX009 (ip), vehicle: saline with Tween-80.
Setting [9] is: dose: 200.0 mg/kg/injection, schedule: Q01DX009 (ip), vehicle: saline with Tween-80.
Where [10] appears, read: dose: 50.0 mg/kg/injection, schedule: Q01DX009 (ip), vehicle: Klucel (hydroxypropylcellulose) (HPC).
[11] abbreviates: dose: 100.0 mg/kg/injection, schedule: Q01DX009 (ip), vehicle: Klucel (hydroxypropylcellulose) (HPC).
The mark [12] stands for this setting: dose: 200.0 mg/kg/injection, schedule: Q01DX009 (ip), vehicle: Klucel (hydroxypropylcellulose) (HPC).
[13] abbreviates: dose: 100.0 mg/kg/injection, schedule: Q04DX002 (ip), vehicle: saline with Tween-80.
[14] abbreviates: dose: 200.0 mg/kg/injection, schedule: Q04DX002 (ip), vehicle: saline with Tween-80.
Where [15] appears, read: dose: 50.0 mg/kg/injection, schedule: Q01DX005 (ip), vehicle: saline with Tween-80.
[16] abbreviates: dose: 100.0 mg/kg/injection, schedule: Q01DX005 (ip), vehicle: saline with Tween-80.

On to `COC(=N)CCSSCCC(=N)OC`, for which the T/C by setting is: (dose: 25.0 mg/kg/injection, schedule: Q01DX009 (ip), vehicle: saline) 102 % of control; under setting [1], 105 % of control; under setting [2], 106 % of control; under setting [3], 101 % of control.

For `COc1ccc(C(=O)OC2(C)CC(C)(C)N=[N+]2[O-])cc1` (stereo unspecified), the T/C is, setting by setting: (dose: 12.5 mg/kg/injection, schedule: Q01DX009 (ip), vehicle: other) 108 % of control; (dose: 25.0 mg/kg/injection, schedule: Q01DX009 (ip), vehicle: other) 113 % of control; (dose: 50.0 mg/kg/injection, schedule: Q01DX009 (ip), vehicle: other) 115 % of control; (dose: 66.0 mg/kg/injection, schedule: Q01DX009 (ip), vehicle: other) 102 % of control; (dose: 100.0 mg/kg/injection, schedule: Q01DX009 (ip), vehicle: other) 100 % of control; (dose: 150.0 mg/kg/injection, schedule: Q01DX009 (ip), vehicle: other) 92 % of control. The T/C (dose: 200.0 mg/kg/injection, schedule: Q01DX009 (ip), vehicle: other) is 113 % of control.

As to `COc1ccc(CCN2C(=O)NC(=O)C2=O)cc1OC`, the T/C was 97 % of control under setting [4], 101 % of control under setting [5] and 97 % of control under setting [6].

On to `O=C(O)c1ccccc1N=N/C(=N\Nc1ccccc1C(=O)O)c1ccnc2ccccc12`, for which the T/C is 100 % of control under setting [7], 97 % of control under setting [8] and 103 % of control under setting [9].

For `CCOC(=O)C1=C(C(=O)C(C)(C)C)C(c2ccc([N+](=O)[O-])cc2)C(C(=O)C(C)(C)C)=C(C(=O)OCC)N1`, the T/C was 103 % of control (dose: 60.0 mg/kg/injection, schedule: Q01DX005 (ip), vehicle: Klucel (hydroxypropylcellulose) (HPC)); 94 % of control (dose: 120.0 mg/kg/injection, schedule: Q01DX005 (ip), vehicle: Klucel (hydroxypropylcellulose) (HPC)); 103 % of control (dose: 240.0 mg/kg/injection, schedule: Q01DX005 (ip), vehicle: Klucel (hydroxypropylcellulose) (HPC)).

In the case of `CC(C)Oc1ccc(C(=O)NS(=O)(=O)c2ccc(N=Nc3c(O)n(-c4ccccc4)n(-c4ccccc4)c3=O)cc2)cc1`, the T/C by setting is: under setting [10], 94 % of control; under setting [11], 91 % of control; under setting [12], 93 % of control.

Turning to `CC(=O)Nc1ccc(C(F)(F)F)cc1`, the T/C was 94 % of control (dose: 25.0 mg/kg/injection, schedule: Q01DX009 (ip), vehicle: suspension in saline); 94 % of control (dose: 50.0 mg/kg/injection, schedule: Q01DX009 (ip), vehicle: suspension in saline); 86 % of control under setting [3].

As for `COc1ccccc1/C=C/C1=C(C)C(=O)CC(c2ccccc2OC)C1C` (stereo unspecified), the T/C under setting [11] is 100 % of control; the T/C under setting [12] is 98 % of control; the T/C (dose: 400.0 mg/kg/injection, schedule: Q01DX009 (ip), vehicle: Klucel (hydroxypropylcellulose) (HPC)) was 92 % of control.

For the compound `CN(C)CCOc1ccc2c(c1)CC/C(=C\c1ncc([N+](=O)[O-])n1C)C2=O`, the T/C was 108 % of control (dose: 12.5 mg/kg/injection, schedule: Q01DX009 (ip), vehicle: saline with Tween-80); 108 % of control (dose: 25.0 mg/kg/injection, schedule: Q01DX009 (ip), vehicle: saline with Tween-80); 109 % of control and 118 % of control under setting [7].

In the case of `COc1cc(C(c2cc3c(cc2OC(C)=O)OCO3)C(C)C(C)=O)cc(OC)c1OC` (stereo unspecified), the T/C was 102 % of control under setting [4], 108 % of control under setting [5] and 111 % of control under setting [6].

For the compound `CC(C)=CCC1(O)C(=O)c2ccccc2C1(O)C(=O)O` (stereo unspecified), the T/C reads like this: (dose: 25.0 mg/kg/injection, schedule: Q01DX009 (ip), vehicle: Klucel (hydroxypropylcellulose) (HPC)) 101 % of control; under setting [10], 100 % of control; under setting [11], 107 % of control; under setting [12], 99 % of control.

On to `CCOC(=O)C1(N=O)CCCCC1=O` (stereo unspecified), for which the T/C is 103 % of control (dose: 100.0 mg/kg/injection, schedule: Q01DX001 (ip), vehicle: alcohol); 97 % of control (dose: 200.0 mg/kg/injection, schedule: Q01DX001 (ip), vehicle: alcohol); 108 % of control (dose: 400.0 mg/kg/injection, schedule: Q01DX001 (ip), vehicle: alcohol).

On to `Cc1cc(C)c(N(C)C)c(C)c1`, for which the T/C under setting [13] is 109 % of control and the T/C under setting [14] was 110 % of control.

As for `CC1=CC[C@@H](Br)C(C)(C)[C@]12CC[C@]1(C)O[C@@H]1C2`, the T/C was 110 % of control (dose: 12.5 mg/kg/injection, schedule: Q01DX005 (ip), vehicle: saline + alcohol); 110 % of control (dose: 25.0 mg/kg/injection, schedule: Q01DX005 (ip), vehicle: saline + alcohol); 105 % of control (dose: 50.0 mg/kg/injection, schedule: Q01DX005 (ip), vehicle: saline + alcohol); 105 % of control (dose: 100.0 mg/kg/injection, schedule: Q01DX005 (ip), vehicle: saline + alcohol).

Consider `COc1ccc(N2C(=O)C(C)SC23C(=O)Nc2ccc(C)cc23)cc1` (stereo unspecified), for which the T/C by setting is: under setting [4], 109 % of control; under setting [5], 102 % of control; under setting [6], 119 % of control.

Consider `CCN(CC)[Se]c1ccccc1`, for which the T/C was 101 % of control under setting [13]; 100 % of control under setting [14]; 98 % of control (dose: 400.0 mg/kg/injection, schedule: Q04DX002 (ip), vehicle: saline with Tween-80).

Take `NNc1cc2c(nn1)CCN(C(=O)c1ccccc1)C2`: the T/C reads like this: under setting [1], 98 % of control; under setting [2], 108 % of control.

As for `Cn1c(N)c(C(=O)C(F)(F)F)c(=O)n(C)c1=O`, the T/C under setting [7] is 99 % of control, the T/C under setting [8] is 95 % of control and the T/C under setting [9] was 95 % of control.

Consider `CC1(C)OC(=O)C(CC(=O)O)O1` (stereo unspecified), for which the T/C reads like this: (dose: 60.0 mg/kg/injection, schedule: Q01DX005 (ip), vehicle: saline) 105 % of control; (dose: 120.0 mg/kg/injection, schedule: Q01DX005 (ip), vehicle: saline) 100 % of control; (dose: 240.0 mg/kg/injection, schedule: Q01DX005 (ip), vehicle: saline) 100 % of control.

For the compound `CCN(CC)CCOCc1ccc2c(c1)OCO2`, the T/C was 113 % of control (dose: 25.0 mg/kg/injection, schedule: Q01DX005 (ip), vehicle: saline with Tween-80); 113 % of control under setting [15]; 111 % of control under setting [16].

Regarding `COc1ccccc1Nc1nc(-c2ccc([N+](=O)[O-])o2)cs1`, the T/C under setting [15] was 93 % of control; the T/C under setting [16] was 86 % of control; the T/C (dose: 200.0 mg/kg/injection, schedule: Q01DX005 (ip), vehicle: saline with Tween-80) is 88 % of control.

With `NC(=O)c1ncn2c(=O)n(CCCl)nnc12`, the T/C is, setting by setting: (dose: 6.25 mg/kg/injection, schedule: Q01DX005 (ip), vehicle: saline) 181 % of control and 236 % of control; (dose: 6.7 mg/kg/injection, schedule: Q01DX005 (ip), vehicle: saline) 254 % of control; (dose: 10.0 mg/kg/injection, schedule: Q01DX005 (ip), vehicle: saline) 565 % of control and 566 % of control; (dose: 12.5 mg/kg/injection, schedule: Q01DX005 (ip), vehicle: saline) 272 % of control and 275 % of control and 297 % of control; (dose: 15.0 mg/kg/injection, schedule: Q01DX005 (ip), vehicle: saline) 566 % of control and 606 % of control; (dose: 22.0 mg/kg/injection, schedule: Q01DX005 (ip), vehicle: saline) 393 % of control and 566 % of control. Further, the T/C by setting is: (dose: 25.0 mg/kg/injection, schedule: Q01DX005 (ip), vehicle: saline) 272 % of control and 297 % of control and 306 % of control; (dose: 33.0 mg/kg/injection, schedule: Q01DX005 (ip), vehicle: saline) 566 % of control and 606 % of control; (dose: 50.0 mg/kg/injection, schedule: Q01DX005 (ip), vehicle: Klucel (hydroxypropylcellulose) (HPC)) 100 % of control.

For the compound `CC(C)(C)SC(=O)C1CCCCC1`, the T/C was 103 % of control under setting [7] and 104 % of control under setting [8].

Consider `COc1ccc2c(N=[N+]=[N-])cc(C)nc2c1`, for which the T/C by setting is: (dose: 30.0 mg/kg/injection, schedule: Q01DX005 (ip), vehicle: saline with Tween-80) 97 % of control; under setting [4], 100 % of control and 91 % of control.
